Assay results as given in patent US20040110775A1, “Cyclin dependent kinase inhibiting purine derivatives” (priority 2001, published 2004).
Values joined by “and” are separate entries in the source; they are usually repeats but may differ in a detail not shown here. Identical values can stand only once. Like-named read-outs stand apart in the source and are kept apart here.

Key:
[1] = biological target: p34 cdc2(CDK1)/cyclinB; experiment: CDK assay: histone H1 phosphorylation with [32P]ATP by cdc2/cyclinB kinase; assay type: biochemical, starfish (Marthasterias glacialis); conditions: read-out: IC50 ± SD CDK1
Description: Assays are available for testing the inhibitory activity of the compounds of interest against a range of CDK/cyclin complexes, including CDK1/cyclin A, CDK1/cyclin B, CDK1/cyclin F, CDK2/cyclin A, CDK2/cyclin E, CDK4/cyclin D, CDK5/35 and CDK6/cyclin D3. […]
(§1) By way of example, however, a typical protocol is summarised below.
Buffer C (containing 6 mM β-glycerophosphate, 30 mM nitrophenyl phosphate, 25 mM MOPS pH 7.0, 5 mM EGTA, 15 mM MgCl2, […] and 0.1 mM sodium orthovanadate) is made up as follows:
Affinity purified p34 cdc2(CDK1)/cyclinB from M-phase starfish (Marthasterias glacialis) in 20% glycerol is stored at −80° C. in chest freezer
Histone H1 (type III-S (Sigma) 4° C.) 5 mg/ml in buffer C.
[^32P]ATP 75 mM: Make up using (multiples of) the following proportions:
DMSO cannot exceed 1% in the assay mixture. Inhibitors are added at 1/10 final assay volume and 10× final strength. DMSO stocks must therefore be diluted to 10× final desired concentration in ≦10% DMSO, ≧90% buffer C.
All reagents (except DMSO stocks) should be kept on ice until assay initiated.
Start reaction in each tube at 30 second intervals b)y adding
5 ml [^32P]ATP vortexing and placing in rack in waterbath at 30° C.
Terminate reaction after 10 min at 30 second intervals in tubes in same order by removing […] reaction mix and spotting onto appropriately labelled filter, allowing to dry for 20-30 seconds and transferring to stirring 1% phosphoric acid.
Blank incubation is performed as above but without histone (add […] buffer C instead) Washing blank is […] ATP added directly to filter.
Wash filters 5-6 times 5 min each
Dry the filters on paper towel
Count in mini scintillation vials with 5 ml scintillant.
NB. The assay can be simplified by making up stock reaction mix as follows:
(1 part cdc2/cyclinB, 16 parts buffer C, 5 parts histone H1)×Number of assay tubes+1 and add […] to each assay tube containing […] buffer C±inhibitor.
It is still necessary, however, to make up assay blank (i.e. without histone) separately.

[2] = biological target: CDK2 (Homo sapiens, UniProt P24941); experiment: Inhibition of CDK2 (CDK inhibition assay); assay type: biochemical; conditions: values given in μM; read-out: IC50 ± SD CDK2
Source text: Assays are available for testing the inhibitory activity of the compounds of interest against a range of CDK/cyclin complexes, including CDK1/cyclin A, CDK1/cyclin B, CDK1/cyclin F, CDK2/cyclin A, CDK2/cyclin E, CDK4/cyclin D, CDK5/35 and CDK6/cyclin D3.
Apart from reference compounds, the compounds listed are accompanied by an NU reference or identification code number.
as §1

**Q.** How did the IC50 ([1]; values given in μM) turn out when `c1ccc(Nc2nc(OCC3CCCCC3)c3nc[nH]c3n2)cc1` [NU6094, 2-Anilino-6-cyclohexylmethoxypurine] was run?
**A.** The IC50 was 1.6 ± 0.1 µM.

**Q.** How did the IC50 ([1]; values given in μM) turn out when `Brc1cccc(Nc2nc(OCC3CCCCC3)c3nc[nH]c3n2)c1` [NU6095, 2-(3′-Bromoanilino)-6-cyclohexylmethoxypurine] was run?
**A.** Its IC50 is 5.3 ± 0.8 µM.

**Q.** How did the IC50 ([1]; values given in μM) turn out when `COc1cccc(Nc2nc(OCC3CCCCC3)c3nc[nH]c3n2)c1` [NU6096, 6-Cyclohexylmethoxy-2-(3′-methoxyanilino)purine] was run?
**A.** The IC50 was 2.2 ± 0.2 µM.

**Q.** What does the source list for `Fc1cccc(Nc2nc(OCC3CCCCC3)c3nc[nH]c3n2)c1` [NU6098, 6-Cyclohexylmethoxy-2-(3′-fluoroanilino)purine]?
**A.** IC50 ([1]; values given in μM): ~10 µM; IC50 [2]: ~10 µM

**Q.** Which IC50 ([1]; values given in μM) does the source give for `CCc1cccc(Nc2nc(OCC3CCCCC3)c3nc[nH]c3n2)c1` [NU6099, 6-Cyclohexylmethoxy-2-(3′-ethylanilino)purine] here?
**A.** The IC50 was > 10 µM.

**Q.** And the IC50 [2]?
**A.** The IC50 was > 10 µM.

**Q.** `COc1ccc(Nc2nc(OCC3CCCCC3)c3nc[nH]c3n2)cc1` [NU6100, 6-Cyclohexylmethoxy-2-(4′-methoxyanilino)purine] was tested. Which IC50 ([1]; values given in μM) did it give?
**A.** Its IC50 is 0.8 ± 0.01 µM.

**Q.** With `CSc1cccc(Nc2nc(OCC3CCCCC3)c3nc[nH]c3n2)c1` [NU6101, 6-Cyclohexylmethoxy-2-(3′-methylmercaptoanilino)purine] as the compound, how does the IC50 ([1]; values given in μM) read?
**A.** Its IC50 is 2.4 ± 0.2 µM.

**Q.** What does the source list for `Fc1ccc(Nc2nc(OCC3CCCCC3)c3nc[nH]c3n2)cc1` [NU6116, 6-Cyclohexylmethoxy-2-(4′-fluoroanilino)purine]?
**A.** IC50 ([1]; values given in μM): > 10 µM; IC50 [2]: > 10 µM

**Q.** For `CSc1ccc(Nc2nc(OCC3CCCCC3)c3nc[nH]c3n2)cc1` [NU6117, 6-Cyclohexylmethoxy-2-(4′-methylmercaptoanilino)purine], which IC50 ([1]; values given in μM) is on record?
**A.** Its IC50 is > 10 µM.

**Q.** What about the IC50 [2] of the same compound?
**A.** Its IC50 is > 10 µM.

**Q.** `COC(=O)c1ccc(Nc2nc(OCC3CCCCC3)c3nc[nH]c3n2)cc1` [NU6118, Methyl 4-N-(6′-Cyclohexylmethoxypurin-2′-yl)aminobenzoate] was tested. Which IC50 ([1]; values given in μM) did it give?
**A.** Its IC50 is ~10 µM.

**Q.** And the IC50 [2]?
**A.** The IC50 was ~10 µM.

**Q.** With `Fc1ccc(Nc2nc(OCC3CCCCC3)c3nc[nH]c3n2)cc1Cl` [NU6119, 6-Cyclohexylmethoxy-2-(3′-chloro-4′-fluoroanilino)purine] as the compound, how does the IC50 ([1]; values given in μM) read?
**A.** Its IC50 is ~10 µM.

**Q.** What about the IC50 [2] of the same compound?
**A.** The IC50 was ~10 µM.

**Q.** Which results are given for `N#CCc1ccc(Nc2nc(OCC3CCCCC3)c3nc[nH]c3n2)cc1` [NU6121, 6-Cyclohexylmethoxy-2-(4′-cyanomethylanilino)purine]?
**A.** IC50 ([1]; values given in μM): 0.3 ± 0.1 µM; IC50 [2]: 0.3 ± 0.03 µM

**Q.** `C[S+]([O-])c1ccc(Nc2nc(OCC3CCCCC3)c3nc[nH]c3n2)cc1` (stereo not drawn) [NU6126] was tested. Which IC50 ([1]; values given in μM) did it give?
**A.** The IC50 was 0.2 ± 0.1 µM.

**Q.** With `CNS(=O)(=O)c1ccc(Nc2nc(OCC3CCCCC3)c3nc[nH]c3n2)cc1` [NU6127, 4-(6-Cyclohexylmethoxy-2-ylamino)-N-methylbenzenesulfonamide] as the compound, how does the IC50 ([1]; values in nM) read?
**A.** The IC50 was 0.009 µM and 0.01 µM.

**Q.** With `CN(C)S(=O)(=O)c1ccc(Nc2nc(OCC3CCCCC3)c3nc[nH]c3n2)cc1` [NU6128, 4-(6-Cyclohexylmethoxy-2-ylamino)-N,N-dimethylbenzenesulfonamide] as the compound, how does the IC50 ([1]; values in nM) read?
**A.** The IC50 was 0.077 ± 0.005 µM.

**Q.** With `O=S(=O)(Nc1cccc(Cl)c1)c1ccc(Nc2nc(OCC3CCCCC3)c3nc[nH]c3n2)cc1` [NU6132, N-(3-Chloro-phenyl)-4-(6-cyclohexylmethoxy-9H-purin-2-ylamino)benzenesulfonamide] as the compound, how does the IC50 [2] read?
**A.** The IC50 was 5.7 µM.

**Q.** How did the IC50 ([1]; values given in μM) turn out when `CCN(CC)C(=O)c1ccc(Nc2nc(OCC3CCCCC3)c3nc[nH]c3n2)cc1` [NU6140, 4-(6-Cyclohexylmethoxy-9H-purin-2-ylamino)-N,N-diethylbenzamide] was run?
**A.** The IC50 was 0.7 µM.

**Q.** For `O=C(O)c1ccc(Nc2nc(OCC3CCCCC3)c3nc[nH]c3n2)cc1` [NU6147, 4-(6-Cyclohexylmethoxypurin-2-ylamino)benzoic acid], which IC50 ([1]; values given in μM) is on record?
**A.** Its IC50 is 0.24 µM.

**Q.** For `OCc1cccc(Nc2nc(OCC3CCCCC3)c3nc[nH]c3n2)c1` [NU6151, [3-(6-Cyclohexylmethoxy-9H-purin-2-ylamino)phenyl]methanol], which IC50 ([1]; values given in μM) is on record?
**A.** Its IC50 is 0.3 ± 0.01 µM.

**Q.** Which IC50 ([1]; values in nM) does the source give for `COc1cc(Nc2nc(OCC3CCCCC3)c3nc[nH]c3n2)ccc1S(N)(=O)=O` [NU6161, 4-[6-Cyclohexylmethoxy-9H-purin-2-ylamino]-benzene(3′-methoxy)sulfonamide] here?
**A.** The IC50 was 0.103 ± 0.004 µM.
